# Tests used:
# chorioallantoic membrane = experiment: Anti-redness effect: Het-CAM method; conditions: 5000 ppm aspirin (positive control); SDS irritant; irritant alone 10 +/− 1.63
# Excerpt: b. Evaluation of the Anti-Redness Effect: Het-CAM Method The Het-CAM model is recommended as an alternative method for the evaluation of the irritant effect of cosmetics. The model uses eggs at a very early stage of development since the nervous system is not yet fully developed (JORF No. 300, Dec. 26, 1996). A moderately irritant product induces instantaneous changes in the capillary density of the chorioallantoic membrane. Previously invisible blood vessels become clearly visible under the effect of vasodilatation. This property was exploited to evaluate the effect of the combination of oridonin and darutoside. The combination oridonin+darutoside was applied to the surface of the chorioallantoic membrane and, after incubation, a surfactant, used as an SDS irritant agent, in an appropriate concentration, was applied to the surface of the membrane. A score was determined by an experienced operator and compared to that for the membranes exposed to the irritant alone (negative control) and that for the membranes exposed to aspirin, used as the positive control (JORF published method, modified).
# Human melanocytes = experiment: Melanogenesis of human melanocytes in monolayer (melanin content); assay type: cell-based; conditions: 5 days, n=4
# Method: iii. Change in the Melanogenesis of Human Melanocytes in Monolayer
# Human melanocytes were cultured and exposed with the test products for 5 days. After incubation the melanin content was measured in cell homogenates (n=4).
# [1] = Oxygen-Radical Absorbance Capacity (ORAC) test; assay type: biochemical; conditions: n = 6, vs control
# Excerpt: a. Reduction in Peroxyl Radicals: ORAC Test
# The Oxygen-Radical Absorbance Capacity (ORAC) test is a method enabling evaluation of the antioxidant capability of molecules and extracts of plant origin. […] The free radical-induced […] of fluorescein decreases its fluorescence. The antioxidant molecules will reduce this degradation
# [2] = system: reduced glutathione (GSH); experiment: Stimulation of reduced glutathione (GSH) synthesis, ELISA; assay type: cell-based; conditions: human keratinocytes, 24 h
# Method: c. Stimulation of Reduced Glutathione (GSH) Synthesis
# Human keratinocytes at confluence are exposed 24 h to tested products. Intracellular GSH concentration was determined by ELISA.
# G3PDH = experiment: Slimming: G3PDH activity in differentiating human preadipocytes; assay type: cell-based; conditions: for Act G3PDH: 10 days of differentiation, control 220.2 +/− 32.8; for Act G3PDH % Change: vs control
# Method: Human preadipocytes are cultured and induced to differentiate in the presence of oridonin. After 10 days of differentiation, G3PDH activity was measured in cell homogenates as a marker of differentiation. (n=4).
compound,measurement,setting,value
CC(=O)Oc1ccccc1C(=O)O [aspirin],Mean score (inflammation index),chorioallantoic membrane,2 +/− 2.06
C=C1C(=O)[C@]23[C@H](O)[C@H]1CC[C@H]2[C@@]12CO[C@]3(O)[C@@H](O)[C@@H]1C(C)(C)CC[C@@H]2O [oridonin],% Change/control (melanin content),"Human melanocytes; oridonin alone, 2.25 ppm",−23%; p < 0.01
same,% Change/control (melanin content),"Human melanocytes; oridonin alone, 3 ppm",−34%; p < 0.01
same,% Change/control (melanin content),"Human melanocytes; oridonin alone, 5 ppm (so in the source)",−21%; p < 0.01
same,% Change/control (melanin content),"Human melanocytes; oridonin alone, 125 ppm (so in the source)",−16%; p < 0.01
same,effect on the reduction of the destruction of fluorescein by free radicals,[1]; oridonin 1.5 ppm,+14%; p < 0.01
same,effect on the reduction of the destruction of fluorescein by free radicals,[1]; oridonin 3 ppm,+4%; dns
same,effect on the reduction of the destruction of fluorescein by free radicals,[1]; oridonin 4.5 ppm,−4%; dns
same,GSH change as % of control,[2]; oridonin 3 ppm,+41%; p < 0.01
same,GSH change as % of control,[2]; oridonin 4.5 ppm,+79%; p < 0.01
same,Act G3PDH,G3PDH; oridonin 2.7 ppm,162.1 +/− 31.4 mU/10^6 cell
same,Act G3PDH % Change,G3PDH; oridonin 2.7 ppm,−26%; p < 0.05
same,Act G3PDH,G3PDH; oridonin 3.6 ppm,127.7 +/− 19.2 mU/10^6 cell
same,Act G3PDH % Change,G3PDH; oridonin 3.6 ppm,−42%; p < 0.01
darutoside,% Change/control (melanin content),"Human melanocytes; darutoside alone, 3.75 ppm",+1%; dns
same,% Change/control (melanin content),"Human melanocytes; darutoside alone, 5 ppm",+2%; dns
same,% Change/control (melanin content),"Human melanocytes; darutoside alone, 7.5 ppm",−4%; dns
same,% Change/control (melanin content),"Human melanocytes; darutoside alone, 10 ppm",−7%; p < 0.05
same,GSH change as % of control,[2]; darutoside 10 ppm,+3%; dns
same,GSH change as % of control,[2]; darutoside 15 ppm,+2%; dns
